These results are taken from PubChem BioAssay (NCI).

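Compound exposure: 48 hours, 5 concentrations, 96-well plates. GI50 = concentration required for 50% inhibition of growth. The concentration for full growth arrest is given as TGI.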

Test systems include EKVX NSCLC; A549 NSCLC; SW-620 colon; SF-268 CNS; SF-539 CNS; SF-295 CNS; MOLT-4 leukemia; HCT-116 colon; SNB-75 CNS.
Common to all, as to experiment: inhibition of tumour cell growth, NCI panel, 48 h

Turning to `CN1CCC(O)C(CNC23CC4CC(CC(C4)C2)C3)C1` (stereo not drawn), the TGI in the assay on EKVX NSCLC, with A549 NSCLC, in the assay with SW-620 colon, in the assay with SF-268 CNS, with SF-539 CNS and with SF-295 CNS was greater than 100 µM each time. Besides, the TGI in the assay with MOLT-4 leukemia was greater than 100 µM.

Consider `COc1ccc(CN2CCc3c(Cl)nc(N)nc3C2=O)c(OC)c1`, for which the GI50 in the assay on HCT-116 colon is 16.1 µM; with EKVX NSCLC it was 16.8 µM; with A549 NSCLC, 47.2 µM; in the assay with SW-620 colon, 13.6 µM; in the assay on SF-268 CNS it was 13.6 µM; with SF-539 CNS, 15.8 µM. Moreover, the GI50 is 40.3 µM in the assay with SF-295 CNS, 2.46 µM with MOLT-4 leukemia and 14.4 µM in the assay with SNB-75 CNS. Further, the TGI was 29.9 µM with HCT-116 colon; 61.7 µM in the assay with EKVX NSCLC; greater than 100 µM in the assay with A549 NSCLC; 28.1 µM with SW-620 colon; 27.3 µM in the assay with SF-268 CNS; 31.7 µM with SF-539 CNS. Also, the TGI in the assay with SF-295 CNS was greater than 100 µM; in the assay with MOLT-4 leukemia it was 34.6 µM; in the assay with SNB-75 CNS, 32.7 µM.

As for `COc1ccc(CN(O)C2C(CO)OC(n3cc(I)c(=O)[nH]c3=O)C2O)cc1` (stereo not drawn), the TGI in the assay with HCT-116 colon, in the assay with EKVX NSCLC, in the assay on A549 NSCLC, in the assay on SW-620 colon, with SF-268 CNS and in the assay with SF-539 CNS was greater than 100 µM throughout. Further, the TGI in the assay with SF-295 CNS, with MOLT-4 leukemia and with SNB-75 CNS was greater than 100 µM throughout.

Turning to `CCN(CC)CCN(C)CC(C)(C)C(=O)/C=C/c1ccccc1`, the TGI is 26.1 µM in the assay with EKVX NSCLC; 47.2 µM with A549 NSCLC; 24.2 µM in the assay on SW-620 colon; 27.2 µM with SF-268 CNS; 19 µM in the assay with SF-539 CNS; 29.4 µM in the assay with SF-295 CNS. The values for the TGI with MOLT-4 leukemia and in the assay with SNB-75 CNS were 30.5 µM and 18.3 µM, respectively.

Regarding `C=C1C(=O)OC2C1C(OC(=O)/C(=C/C)COC(C)=O)CC1(CO1)C1C(OC(=O)/C(=C/C)CO)C=C(C)C21` (stereo not drawn), the TGI came to 2.98 µM with HCT-116 colon; 4.16 µM with EKVX NSCLC; 24.8 µM in the assay with A549 NSCLC; 9.56 µM in the assay on SW-620 colon; 9.35 µM in the assay on SF-268 CNS; 19.5 µM in the assay with SF-539 CNS. Moreover, the TGI in the assay on SF-295 CNS was determined as 20.8 µM; in the assay with MOLT-4 leukemia it was 2.24 µM; in the assay with SNB-75 CNS, 15.6 µM.

For the compound `O=C(CC1Sc2ccccc2NC1=O)Nc1cccc(Cl)c1` (stereo not drawn), the TGI is greater than 100 µM in the assay on HCT-116 colon; 84.8 µM in the assay on EKVX NSCLC; greater than 100 µM in the assay on A549 NSCLC; greater than 100 µM in the assay with SW-620 colon; greater than 100 µM in the assay with SF-268 CNS; greater than 100 µM in the assay with SF-539 CNS. Moreover, the TGI with SF-295 CNS is greater than 100 µM; in the assay with MOLT-4 leukemia, 57.2 µM; in the assay on SNB-75 CNS it was greater than 100 µM.

Take `CC(C)NC(=O)OCc1nnn2c1C(OC(=O)NC(C)C)CC2` (stereo not drawn): the TGI with HCT-116 colon, with EKVX NSCLC, in the assay with A549 NSCLC, with SW-620 colon, in the assay on SF-539 CNS and with SF-295 CNS was greater than 100 µM throughout. The TGI in the assay with MOLT-4 leukemia and in the assay on SNB-75 CNS was greater than 100 µM each time.

As to `COCCNC(=O)C1C(=O)N(CCOC)C(=O)/C1=N/N` (stereo not drawn), the TGI in the assay on HCT-116 colon, in the assay with EKVX NSCLC, in the assay on A549 NSCLC, in the assay on SW-620 colon, in the assay with SF-268 CNS and in the assay with SF-539 CNS was greater than 100 µM throughout. Also, the TGI with SF-295 CNS, with MOLT-4 leukemia and in the assay with SNB-75 CNS was greater than 100 µM throughout.

For `CCCCNC(=S)Nn1c(-c2ccccc2)nc2ccccc2c1=O`, the TGI in the assay on HCT-116 colon, with A549 NSCLC, in the assay with SW-620 colon, in the assay with SF-268 CNS, in the assay with SF-539 CNS and with SF-295 CNS was greater than 100 µM each time. The TGI in the assay with MOLT-4 leukemia and in the assay with SNB-75 CNS was greater than 100 µM each time.

As to `COc1ccc(C(=O)O/N=C2\CCCC\C2=C/c2ccccc2)cc1`, the TGI in the assay with HCT-116 colon is greater than 100 µM; in the assay on EKVX NSCLC, greater than 100 µM; in the assay with A549 NSCLC, greater than 100 µM; in the assay on SW-620 colon it was greater than 100 µM; with SF-268 CNS, greater than 100 µM; in the assay on SF-539 CNS, 81.2 µM. For the same compound, the TGI in the assay with MOLT-4 leukemia is greater than 100 µM; with SNB-75 CNS, 62 µM.

Turning to `CC(=O)NNc1nc(C)c(C(/C=C/c2ccc(/C=C/C(=N\NC(=O)c3ccncc3)c3sc(NNC(C)=O)nc3C)cc2)=N/NC(=O)c2ccncc2)s1`, the TGI in the assay on HCT-116 colon, with EKVX NSCLC, in the assay on A549 NSCLC, with SW-620 colon, in the assay with SF-268 CNS and with SF-539 CNS was greater than 100 µM each time. Moreover, the TGI in the assay on SF-295 CNS, with MOLT-4 leukemia and in the assay with SNB-75 CNS was greater than 100 µM throughout.

`CCS[C@H]1NC(=O)C1[C@H](C)O[Si](C)(C)C(C)(C)C` (stereo partly drawn): the TGI with HCT-116 colon, in the assay on EKVX NSCLC, in the assay on A549 NSCLC, in the assay on SW-620 colon, in the assay with SF-268 CNS and with SF-539 CNS was greater than 100 µM throughout. The TGI in the assay with SF-295 CNS and with SNB-75 CNS was greater than 100 µM in each case.

With `COC(=O)C1Cc2c([nH]c3ccccc23)[C@H](CC(C)C)N1` (stereo partly drawn), the TGI with HCT-116 colon, in the assay on EKVX NSCLC, in the assay with A549 NSCLC, in the assay on SW-620 colon, in the assay on SF-268 CNS and in the assay with SF-539 CNS was greater than 100 µM throughout. The TGI in the assay on SF-295 CNS, in the assay with MOLT-4 leukemia and in the assay on SNB-75 CNS was greater than 100 µM in each case.

Regarding `CC(=O)OC1COC(N2C(=O)C(=O)c3c(C)cc(Cl)nc32)C(OC(C)=O)C1OC(C)=O` (stereo not drawn), the TGI with HCT-116 colon, with EKVX NSCLC, with A549 NSCLC, in the assay with SW-620 colon, in the assay on SF-268 CNS and in the assay with SF-539 CNS was greater than 100 µM each time. In addition, the TGI in the assay on SF-295 CNS, in the assay with MOLT-4 leukemia and with SNB-75 CNS was greater than 100 µM throughout.
